The values below come from ChEMBL document CHEMBL1833939, “Pyrrolidin-3-yl-N-methylbenzamides as potent histamine 3 receptor antagonists” (Bioorg Med Chem Lett, 2011).

Usually half-life stands for the time needed for the level to fall by half in the phase considered. Low values mean fast loss, high ones slow loss.

The nature of this series: in vitro. The following applies: human.

In the case of `Cc1nc2ccccc2n1-c1ccc(C(=O)N(C)[C@@H]2CCN(C3CCC3)C2)cc1`, the half-life (liver microsomes) worked out at 15 min. Consider `Cc1nc2ccccc2n1-c1ccc(C(=O)N(C)[C@@H]2CCN(C3CCCC3)C2)cc1`, for which the half-life (liver microsomes) was > 30 min. In the case of `Cc1nc2ccccc2n1-c1ccc(C(=O)N(C)[C@@H]2CCN(C3CCCCC3)C2)cc1`, the half-life (microsomes) was > 30 min.
